# Measured values from patent US5587475A, “Derivatized virginiamycin M1” (University of Notre Dame, priority 1995, dated 1996).
# Legend:
# Micrococcus luteus = test: in vivo activity, M.I.C. on M. luteus (VM1 derivatives alone, without VS1); assay type: cell-based; set-up: key: (+) indicates multiplication of bacteria; conditions: M. luteus in LBroth, 18 h at 37° C. with shaking
# Protocol: The synthesized derivatives of the present invention have been tested for antibacterial activity (in solid and liquid medium), ribosome binding affinity and synergistic activity with virginiamycin S. The tests for biological activity were carried out both in vivo and in vitro. The in vivo tests were carried out using Micrococcus luteus as the test organism with the VM1 derivatives alone (without VS1). Minimum inhibitory concentrations (MIC values) were determined on agar broth plates by standard microbiological procedures, with a range of concentrations of the VM derivatives applied to the plates. The in vitro tests of the VM derivatives were performed together with VS1, and took advantage of the unique fluorescence (F) inherent in VS1. The results are summarized in the following tables, wherein the activities are compared to virginiamycin (VM1). | M. luteus in LBroth, 18 h at 37° C. with shaking. | M. luteus in LBroth, 18 h at 37° C. with shaking.
# ribosomes = test: in vitro activity: binding to free ribosomes, VS1 fluorescence with erythromycin displacement; set-up: key to kobs (symbol): (*) too small to be measured. t/2 is very large; conditions: together with VS1, fluorescence
# Protocol: The in vivo tests were carried out using Micrococcus luteus as the test organism with the VM1 derivatives alone (without VS1). Minimum inhibitory concentrations (MIC values) were determined on agar broth plates by standard microbiological procedures, with a range of concentrations of the VM derivatives applied to the plates. The in vitro tests of the VM derivatives were performed together with VS1, and took advantage of the unique fluorescence (F) inherent in VS1. […] Using spectrofluorometry, an increase in fluorescence can be measured when ribosomes are added to a VS1 solution. Erythromycin is known to bind at the same position on the ribosome (50-S subunit) as VS1, and when it is added to the VS1 /ribosomal mixture, a decrease in fluorescence is seen. If VM1 is added to the VS1 /ribosomal/erythromycin mixture, an increase in fluorescence can be measured. Presumably, a conformational change of the ribosomes occurs upon binding of VM1, which allows VS1 to bind preferentially and releases erythromycin from the ribosomes. The VM1 derivatives would also display this type of behavior if they bind to the ribosomes.
# [1] = in vitro Activity of VM1-Carboxylic Acid Derivatives
# [2] = in vitro Activity of VM1-Ester Derivatives
Compound,kobs (ribosomes; [1]),kobs (ribosomes; [2]),t/2 (ribosomes; [2]),"in vivo Acitivity of VM1-Carboxylic Derivatives, M.I.C. on M. luteus (multiplication of bacteria) (Micrococcus luteus; Concentration 0.0625 μg/mL)","in vivo Acitivity of VM1-Carboxylic Derivatives, M.I.C. on M. luteus (multiplication of bacteria) (Micrococcus luteus; Concentration 0.125 μg/mL)","in vivo Acitivity of VM1-Carboxylic Derivatives, M.I.C. on M. luteus (multiplication of bacteria) (Micrococcus luteus; Concentration 0.25 μg/mL)","in vivo Acitivity of VM1-Carboxylic Derivatives, M.I.C. on M. luteus (multiplication of bacteria) (Micrococcus luteus; Concentration 0.5 μg/mL)","in vivo Acitivity of VM1-Carboxylic Derivatives, M.I.C. on M. luteus (multiplication of bacteria) (Micrococcus luteus; Concentration 1 μg/mL)","in vivo Acitivity of VM1-Carboxylic Derivatives, M.I.C. on M. luteus (multiplication of bacteria) (Micrococcus luteus; Concentration 2 μg/mL)","in vivo Acitivity of VM1-Carboxylic Derivatives, M.I.C. on M. luteus (multiplication of bacteria) (Micrococcus luteus; Concentration 4 μg/mL)","in vivo Acitivity of VM1-Carboxylic Derivatives, M.I.C. on M. luteus (multiplication of bacteria) (Micrococcus luteus; Concentration 8 μg/mL)","in vivo Acitivity of VM1-Carboxylic Derivatives, M.I.C. on M. luteus (multiplication of bacteria) (Micrococcus luteus; Concentration 16 μg/mL)","in vivo Acitivity of VM1-Carboxylic Derivatives, M.I.C. on M. luteus (multiplication of bacteria) (Micrococcus luteus; Concentration 32 μg/mL)","in vivo Activity of VM1-Ester Derivatives, M.I.C. on M. luteus (multiplication of bacteria) (Micrococcus luteus; Concentration 0.0625 μg/mL)","in vivo Activity of VM1-Ester Derivatives, M.I.C. on M. luteus (multiplication of bacteria) (Micrococcus luteus; Concentration 0.125 μg/mL)","in vivo Activity of VM1-Ester Derivatives, M.I.C. on M. luteus (multiplication of bacteria) (Micrococcus luteus; Concentration 0.25 μg/mL)","in vivo Activity of VM1-Ester Derivatives, M.I.C. on M. luteus (multiplication of bacteria) (Micrococcus luteus; Concentration 0.5 μg/mL)","in vivo Activity of VM1-Ester Derivatives, M.I.C. on M. luteus (multiplication of bacteria) (Micrococcus luteus; Concentration 1 μg/mL)","in vivo Activity of VM1-Ester Derivatives, M.I.C. on M. luteus (multiplication of bacteria) (Micrococcus luteus; Concentration 2 μg/mL)","in vivo Activity of VM1-Ester Derivatives, M.I.C. on M. luteus (multiplication of bacteria) (Micrococcus luteus; Concentration 4 μg/mL)",further results
"CC1=C\[C@@H](O)CC(=O)Cc2nc(co2)C(=O)N2CC[C@H](SCC(=O)O)[C@H]2C(=O)O[C@H](C(C)C)[C@H](C)/C=C/C(=O)NC\C=C\1 [Carboxylic a S,R]",,,,+,+,+,+,+,+,+,+,+,+,,,,,,,,"in vivo Acitivity of VM1-Carboxylic Derivatives, M.I.C. on M. luteus (multiplication of bacteria) (Micrococcus luteus; Concentration 128 μg/mL): +; kobs (symbol) (ribosomes; [1]): *"
"CC1=C\[C@@H](O)CC(=O)Cc2nc(co2)C(=O)N2CC[C@@H](SCC(=O)O)[C@@H]2C(=O)O[C@H](C(C)C)[C@H](C)/C=C/C(=O)NC\C=C\1 [Carboxylic a R,S]",.00047 s⁻¹,,,+,+,+,+,+,+,+,+,+,,,,,,,,,t/2 (ribosomes; [1]): 1487 s
"CC1=C\[C@@H](O)CC(=O)Cc2nc(co2)C(=O)N2CC[C@H](SCCCCC(=O)OCC(Cl)(Cl)Cl)[C@H]2C(=O)O[C@H](C(C)C)[C@H](C)/C=C/C(=O)NC\C=C\1 [Ester c S,R]",,,,,,,,,,,,,,+,+,+,+,+,+,+,"in vivo Activity of VM1-Ester Derivatives, M.I.C. on M. luteus (multiplication of bacteria) (Micrococcus luteus; Concentration 8 μg/mL): +; kobs (symbol) (ribosomes; [2]): *"
"CC1=C\[C@@H](O)CC(=O)Cc2nc(co2)C(=O)N2CC[C@@H](SCCC(=O)O)[C@@H]2C(=O)O[C@H](C(C)C)[C@H](C)/C=C/C(=O)NC\C=C\1 [Carboxylic b R,S]",0.003 s⁻¹,,,+,+,+,+,+,+,+,+,+,+,,,,,,,,t/2 (ribosomes; [1]): 229 s
"CC1=C\[C@@H](O)CC(=O)Cc2nc(co2)C(=O)N2CCC=C2C(=O)O[C@H](C(C)C)[C@H](C)/C=C/C(=O)NC\C=C\1 [VM1, virginiamycin M1]",0.068 s⁻¹,0.068 s⁻¹,10.2 s,+,,,,,,,,,,+,,,,,,,t/2 (ribosomes; [1]): 10.2 s
"CC1=C\[C@@H](O)CC(=O)Cc2nc(co2)C(=O)N2CC[C@H](SCCC(=O)O)[C@H]2C(=O)O[C@H](C(C)C)[C@H](C)/C=C/C(=O)NC\C=C\1 [Carboxylic b S,R]",,,,+,+,+,+,+,+,+,+,+,+,,,,,,,,"in vivo Acitivity of VM1-Carboxylic Derivatives, M.I.C. on M. luteus (multiplication of bacteria) (Micrococcus luteus; Concentration 128 μg/mL): +; kobs (symbol) (ribosomes; [1]): *"
"CC1=C\[C@@H](O)CC(=O)Cc2nc(co2)C(=O)N2CC[C@H](SCC(=O)OCC(Cl)(Cl)Cl)[C@H]2C(=O)O[C@H](C(C)C)[C@H](C)/C=C/C(=O)NC\C=C\1 [Ester a S,R]",,,,,,,,,,,,,,+,+,+,+,+,+,+,"in vivo Activity of VM1-Ester Derivatives, M.I.C. on M. luteus (multiplication of bacteria) (Micrococcus luteus; Concentration 8 μg/mL): +; in vivo Activity of VM1-Ester Derivatives, M.I.C. on M. luteus (multiplication of bacteria) (Micrococcus luteus; Concentration 16 μg/mL): +; kobs (symbol) (ribosomes; [2]): *"

# Continued, in another order:
kobs (ribosomes; [1]),kobs (ribosomes; [2]),t/2 (ribosomes; [2]),Compound,"in vivo Acitivity of VM1-Carboxylic Derivatives, M.I.C. on M. luteus (multiplication of bacteria) (Micrococcus luteus; Concentration 0.0625 μg/mL)","in vivo Acitivity of VM1-Carboxylic Derivatives, M.I.C. on M. luteus (multiplication of bacteria) (Micrococcus luteus; Concentration 0.125 μg/mL)","in vivo Acitivity of VM1-Carboxylic Derivatives, M.I.C. on M. luteus (multiplication of bacteria) (Micrococcus luteus; Concentration 0.25 μg/mL)","in vivo Acitivity of VM1-Carboxylic Derivatives, M.I.C. on M. luteus (multiplication of bacteria) (Micrococcus luteus; Concentration 0.5 μg/mL)","in vivo Acitivity of VM1-Carboxylic Derivatives, M.I.C. on M. luteus (multiplication of bacteria) (Micrococcus luteus; Concentration 1 μg/mL)","in vivo Acitivity of VM1-Carboxylic Derivatives, M.I.C. on M. luteus (multiplication of bacteria) (Micrococcus luteus; Concentration 2 μg/mL)","in vivo Acitivity of VM1-Carboxylic Derivatives, M.I.C. on M. luteus (multiplication of bacteria) (Micrococcus luteus; Concentration 4 μg/mL)","in vivo Acitivity of VM1-Carboxylic Derivatives, M.I.C. on M. luteus (multiplication of bacteria) (Micrococcus luteus; Concentration 8 μg/mL)","in vivo Acitivity of VM1-Carboxylic Derivatives, M.I.C. on M. luteus (multiplication of bacteria) (Micrococcus luteus; Concentration 16 μg/mL)","in vivo Acitivity of VM1-Carboxylic Derivatives, M.I.C. on M. luteus (multiplication of bacteria) (Micrococcus luteus; Concentration 32 μg/mL)","in vivo Activity of VM1-Ester Derivatives, M.I.C. on M. luteus (multiplication of bacteria) (Micrococcus luteus; Concentration 0.0625 μg/mL)","in vivo Activity of VM1-Ester Derivatives, M.I.C. on M. luteus (multiplication of bacteria) (Micrococcus luteus; Concentration 0.125 μg/mL)","in vivo Activity of VM1-Ester Derivatives, M.I.C. on M. luteus (multiplication of bacteria) (Micrococcus luteus; Concentration 0.25 μg/mL)","in vivo Activity of VM1-Ester Derivatives, M.I.C. on M. luteus (multiplication of bacteria) (Micrococcus luteus; Concentration 0.5 μg/mL)","in vivo Activity of VM1-Ester Derivatives, M.I.C. on M. luteus (multiplication of bacteria) (Micrococcus luteus; Concentration 1 μg/mL)","in vivo Activity of VM1-Ester Derivatives, M.I.C. on M. luteus (multiplication of bacteria) (Micrococcus luteus; Concentration 2 μg/mL)","in vivo Activity of VM1-Ester Derivatives, M.I.C. on M. luteus (multiplication of bacteria) (Micrococcus luteus; Concentration 4 μg/mL)",further results
,0.0009 s⁻¹,721 s,"CC1=C\[C@@H](O)CC(=O)Cc2nc(co2)C(=O)N2CC[C@H](SCCC(=O)OCC(Cl)(Cl)Cl)[C@H]2C(=O)O[C@H](C(C)C)[C@H](C)/C=C/C(=O)NC\C=C\1 [Ester b S,R]",,,,,,,,,,,+,+,+,+,+,+,+,"in vivo Activity of VM1-Ester Derivatives, M.I.C. on M. luteus (multiplication of bacteria) (Micrococcus luteus; Concentration 8 μg/mL): +"
,0.019 s⁻¹,35.6 s,"CC1=C\[C@@H](O)CC(=O)Cc2nc(co2)C(=O)N2CC[C@@H](SCC(=O)OCC(Cl)(Cl)Cl)[C@@H]2C(=O)O[C@H](C(C)C)[C@H](C)/C=C/C(=O)NC\C=C\1 [Ester a R,S]",,,,,,,,,,,+,+,+,,,,,
,0.020 s⁻¹,34.1 s,"CC1=C\[C@@H](O)CC(=O)Cc2nc(co2)C(=O)N2CC[C@@H](SCCCCC(=O)OCC(Cl)(Cl)Cl)[C@@H]2C(=O)O[C@H](C(C)C)[C@H](C)/C=C/C(=O)NC\C=C\1 [Ester c R,S]",,,,,,,,,,,+,+,+,+,+,+,+,
